Test results as given in patent US12312370B2, “Immunoproteasome inhibitors” (Principia Biopharma Inc., priority 2017, dated 2025).
Where two headings read alike, the source gives them in different places.

Assays:
[1] = molecular target: constitutive proteasome β5c unit (Homo sapiens, UniProt P28074); experiment: Caliper-based proteasome enzymatic activity assay, β5c; format: biochemical; conditions: human recombinant constitutive proteasome 0.3 nM, FAM-labeled peptide substrate 1 μM, rt 3 h; read-out: β5c subunit IC50
[2] = molecular target: immunoproteasome LMP7/B5i subunit (Homo sapiens, UniProt P28062); experiment: Caliper-based proteasome enzymatic activity assay, LMP7; format: biochemical
[3] = human recombinant immunoproteasome 0.3 nM, FAM-labeled peptide substrate 1 μM, rt 3 h, read-out: LMP7 subunit IC50

| SMILES | IC50 [1] | IC50 [2, 3] | IC50 [2] |
| --- | --- | --- | --- |
| C=CC(=O)N1CCC[C@H](OC(=O)N[C@@H](Cc2ccc(F)cc2)B(O)O)C1 [Example 70, ((R)-1-(((((S)-1-acryloylpiperidin-3-yl)oxy)carbonyl)amino)-2-(4-fluorophenyl)ethyl)boronic acid] | > 5000 nM |  | 106 nM |
| CC(C)(C=C(C#N)C(=O)N1CC[C@@H](OC(=O)N[C@@H](Cc2ccccc2)B(O)O)C1)N1CCC(F)(F)C1 [Example 90, ((R)-1-(((((R)-1-(2-cyano-4-(3,3-difluoropyrrolidin-1-yl)-4-methylpent-2-enoyl)pyrrolidin-3-yl)oxy)carbonyl)amino)-2-phenylethyl)boronic acid] | 1590 nM | 3.2 nM |  |
| CC(C)(C=C(C#N)C(=O)N1CCC[C@@H](OC(=O)N[C@@H](Cc2ccccc2)B(O)O)C1)N1CCC(F)(F)C1 [Example 55, ((R)-1-(((((R)-1-(2-cyano-4-(3,3-difluoropyrrolidin-1-yl)-4-methylpent-2-enoyl)piperidin-3-yl)oxy)carbonyl)amino)-2-phenylethyl)boronic acid] | 3880 nM | 5.1 nM |  |
| C=CC(=O)N1C[C@@H](F)[C@H](OC(=O)N[C@@H](Cc2ccc(F)cc2)B(O)O)C1 [Example 135, ((R)-1-(((((3R,4R)-1-acryloyl-4-fluoropyrrolidin-3-yl)oxy)carbonyl)amino)-2-(4-fluorophenyl)ethyl)boronic acid] | 3320 nM | 18.2 nM |  |
| CCc1cccc(C[C@H](NC(=O)[C@H](COC[C@H]2CCCN2C(=O)C(C#N)=CC(C)C)NCC(F)(F)F)B(O)O)c1 [Example 30, ((R)-1-((S)-3-(((R)-1-(2-cyano-4-methylpent-2-enoyl)pyrrolidin-2-yl)methoxy)-2-((2,2,2-trifluoroethyl)amino)propanamido)-2-(3-ethylphenyl)ethyl)boronic acid] | 1830 nM | 87 nM |  |
| C=CC(=O)N1CC[C@H]1COC(=O)N[C@@H](Cc1ccccc1)B(O)O [Example 51, ((R)-1-(((((S)-1-acryloylazetidin-2-yl)methoxy)carbonyl)amino)-2-phenylethyl)boronic acid] | 1430 nM | 256 nM |  |
| CC(C)(C=C(C#N)C(=O)N1CCC[C@H](COC(=O)N[C@@H](Cc2ccccc2)B(O)O)C1)N1CCC(F)(F)C1 [Example 53, ((R)-1-(((((S)-1-(2-cyano-4-(3,3-difluoropyrrolidin-1-yl)-4-methylpent-2-enoyl)piperidin-3-yl)methoxy)carbonyl)amino)-2-phenylethyl)boronic acid] | > 5000 nM | 4.4 nM |  |
| CC(C)(C=C(C#N)C(=O)N1CC[C@H](COC(=O)N[C@@H](Cc2ccccc2)B(O)O)C1)N1CCC(F)(F)C1 [Example 95, ((R)-1-(((((S)-1-(2-cyano-4-(3,3-difluoropyrrolidin-1-yl)-4-methylpent-2-enoyl)pyrrolidin-3-yl)methoxy)carbonyl)amino)-2-phenylethyl)boronic acid] | 2640 nM | 6.9 nM |  |
| CC(C)(C=C(C#N)C(=O)N1CCCC[C@@H](OC(=O)N[C@@H](Cc2ccc(F)cc2)B(O)O)C1)N1CCOCC1 [Example 137, ((R)-1-(((((R)-1-(2-cyano-4-methyl-4-morpholinopent-2-enoyl)azepan-3-yl)oxy)carbonyl)amino)-2-(4-fluorophenyl)ethyl)boronic acid] | 2080 nM | 1.9 nM |  |
| CC(C)(C=C(C#N)C(=O)N1CCC[C@@H]1CNC(=O)N[C@@H](Cc1coc2ccccc12)B(O)O)N1CCC(F)(F)CC1 [Example 49, ((R)-2-(benzofuran-3-yl)-1-(3-(((R)-1-(2-cyano-4-(4,4-difluoropiperidin-1-yl)-4-methylpent-2-enoyl)pyrrolidin-2-yl)methyl)ureido)ethyl)boronic acid] | 1810 nM | 5.3 nM |  |
| C=CC(=O)N1C[C@H](OC(=O)N[C@@H](Cc2ccccc2)B(O)O)[C@@H](F)C1 [Example 110, ((R)-1-(((((3S,4S)-1-acryloyl-4-fluoropyrrolidin-3-yl)oxy)carbonyl)amino)-2-phenylethyl)boronic acid] | 2840 nM | 78.3 nM |  |
| CC(C)(C=C(C#N)C(=O)N1CCC[C@H](OC(=O)N[C@@H](Cc2ccccc2)B(O)O)C1)N1CCC(F)(F)C1 [Example 60, ((R)-1-(((((S)-1-(2-cyano-4-(3,3-difluoropyrrolidin-1-yl)-4-methylpent-2-enoyl)piperidin-3-yl)oxy)carbonyl)amino)-2-phenylethyl)boronic acid] | 463 nM | 1.4 nM |  |
| CC(C)(C=C(C#N)C(=O)N1CCC[C@](C)(OC(=O)N[C@@H](Cc2ccccc2)B(O)O)C1)N1CCC(F)(F)C1 (single isomer, unassigned) [Example 92] | > 5000 nM | 42.2 nM |  |
| C=CC(=O)N1C[C@@H](F)[C@H](OC(=O)N[C@@H](Cc2ccccc2)B(O)O)C1 [Example 102, ((R)-1-(((((3R,4R)-1-acryloyl-4-fluoropyrrolidin-3-yl)oxy)carbonyl)amino)-2-phenylethyl)boronic acid] | 4700 nM | 27.1 nM |  |
| C=CC(=O)N1CCC[C@H](OC(=O)N[C@@H](Cc2ccccc2)B(O)O)C1 [Example 67, ((R)-1-(((((S)-1-acryloylpiperidin-3-yl)oxy)carbonyl)amino)-2-phenylethyl)boronic acid] | > 5000 nM | 249 nM |  |
| CC(C)(C=C(C#N)C(=O)N1CC[C@H](COC(=O)N[C@@H](Cc2ccccc2)B(O)O)C1)N1CCOCC1 [Example 99, ((R)-1-(((((S)-1-(2-cyano-4-methyl-4-morpholinopent-2-enoyl)pyrrolidin-3-yl)methoxy)carbonyl)amino)-2-phenylethyl)boronic acid] | 3760 nM | 19.3 nM |  |
| CC1(C)CCN(C(C)(C)C=C(C#N)C(=O)N2CCC[C@H](OC(=O)N[C@@H](Cc3coc4ccccc34)B(O)O)C2)C1 [Example 68, ((R)-2-(benzofuran-3-yl)-1-(((((S)-1-(2-cyano-4-(3,3-dimethylpyrrolidin-1-yl)-4-methylpent-2-enoyl)piperidin-3-yl)oxy)carbonyl)amino)ethyl)boronic acid] | 1240 nM | 31.8 nM |  |
| CC(C)(C=C(C#N)C(=O)N1CCC[C@H](NC(=O)N[C@@H](Cc2ccccc2)B(O)O)C1)N1CCC(F)(F)C1 [Example 112, ((R)-1-(3-((S)-1-(2-cyano-4-(3,3-difluoropyrrolidin-1-yl)-4-methylpent-2-enoyl)piperidin-3-yl)ureido)-2-phenylethyl)boronic acid] | 2240 nM | 143 nM |  |
| C=CC(=O)N1CC[C@@H]1COC(=O)N[C@@H](Cc1coc2ccccc12)B(O)O [Example 62, ((R)-1-(((((R)-1-acryloylazetidin-2-yl)methoxy)carbonyl)amino)-2-(benzofuran-3-yl)ethyl)boronic acid] | 126 nM | 2.3 nM |  |

More lines, main results first:

| IC50 [1] | IC50 [2, 3] | SMILES | IC50 [2] |
| --- | --- | --- | --- |
| 166 nM | 26 nM | CC(C)(C)C=C(C#N)C(=O)N1CCC[C@@H]1COC[C@H](NCC(F)(F)F)C(=O)N[C@@H](Cc1ccccc1)B(O)O [Example 24, (R)-1-((S)-3-(((R)-1-(2-cyano-4,4-dimethylpent-2-enoyl)pyrrolidin-2-yl)methoxy)-2-(2,2,2-trifluoroethylamino)propanamido)-2-phenylethylboronic acid] |  |
| 14.8 nM | 6.6 nM | CC(C)C=C(C#N)C(=O)NCCCC[C@H](NC(=O)[C@@H](NC(=O)C(C)C)[C@@H](C)O)C(=O)N[C@@H](Cc1ccccc1)B(O)O [Example 10, ((R)-1-((S)-6-(2-cyano-4-methylpent-2-enamido)-2-((2S,3R)-3-hydroxy-2-isobutyramidobutanamido)hexanamido)-2-phenylethyl)boronic acid] |  |
| 294 nM | 46 nM | CC(C)C=C(C#N)C(=O)N1CCC[C@@H]1COC[C@H](NCC(F)(F)F)C(=O)N[C@@H](CC(C)C)B(O)O [Example 28] |  |
| 418 nM | 7.5 nM | C=CC(=O)N1CCC[C@H](OC(=O)N[C@@H](Cc2coc3ccccc23)B(O)O)C1 [Example 65, ((R)-1-(((((S)-1-acryloylpiperidin-3-yl)oxy)carbonyl)amino)-2-(benzofuran-3-yl)ethyl)boronic acid] |  |
| 715 nM | 1.7 nM | Cc1ccc(C[C@H](NC(=O)OC[C@H]2CCCN(C(=O)C(C#N)=CC(C)(C)N3CCC(F)(F)C3)C2)B(O)O)cc1 [Example 52, ((R)-1-(((((S)-1-(2-cyano-4-(3,3-difluoropyrrolidin-1-yl)-4-methylpent-2-enoyl)piperidin-3-yl)methoxy)carbonyl)amino)-2-(p-tolyl)ethyl)boronic acid] |  |
| 1070 nM | 1 nM | COC(=O)N1CCN(C(C)(C)C=C(C#N)C(=O)N2CCCC[C@@H](OC(=O)N[C@@H](Cc3ccccc3)B(O)O)C2)CC1 [Example 107, ((R)-1-(((((R)-1-(2-cyano-4-(4-(methoxycarbonyl)piperazin-1-yl)-4-methylpent-2-enoyl)azepan-3-yl)oxy)carbonyl)amino)-2-phenylethyl)boronic acid] |  |
| 1200 nM | 4 nM | CC(C)(C=C(C#N)C(=O)N1CCC[C@@H]1CNC(=O)N[C@@H](Cc1coc2ccccc12)B(O)O)N1CCC(F)(F)C1 [Example 50, ((R)-2-(benzofuran-3-yl)-1-(3-(((R)-1-(2-cyano-4-(3,3-difluoropyrrolidin-1-yl)-4-methylpent-2-enoyl)pyrrolidin-2-yl)methyl)ureido)ethyl)boronic acid] |  |
| 218 nM | 59.1 nM | C=CC(=O)N1CC(COC(=O)N[C@@H](Cc2ccccc2)B(O)O)C1 [Example 86, (R)-(1-((((1-acryloylazetidin-3-yl)methoxy)carbonyl)amino)-2-phenylethyl)boronic acid] |  |
| 362 nM | 11 nM | CC(C)C=C(C#N)C(=O)N(C)c1cccc(C[C@H](NCC(F)(F)F)C(=O)N[C@@H](Cc2ccccc2)B(O)O)c1 [Example 26, ((R)-1-((S)-3-(3-(2-cyano-N,4-dimethylpent-2-enamido)phenyl)-2-((2,2,2-trifluoroethyl)amino)propanamido)-2-phenylethyl)boronic acid] |  |
